Measured values: paper PMC11547015 (International Journal of Molecular Sciences, 2024)
Several values for one entry are separate records, joined by “and”; a condition that tells them apart may be missing. Equal values may be shown once. Entries after “also recorded” stand apart in the source; their conditions may differ. Read-outs that look alike come from different tables or passages of the source.

Target: T1, human D2 receptor (Homo sapiens, UniProt P14416)
T1 construct: host or cells: CHO-K1
Assay: Dopamine assay: functional cAMP read-out (HitHunter cAMP XS+, Gi/o agonist format)
Assay type: cell-based
Conditions: for EC50: CHO-K1 cells overexpressing the human D2 receptor, cAMP read-out, 25 µM forskolin, n = 2 independent experiments; for dopaminergic activity (in words): isolated compounds, D2 receptor activity assay; for change in activity on the D2 receptor relative to 7: compared with 3-epi-maslinic acid (7)
Experimental: Dopaminergic activity was determined with a functional assay in CHO-K1 cells overexpressing the human D2 receptor, using a cAMP read-out (Eurofins DiscoverX Corporation, Fremont, CA, USA). The cells (5000 cells/cm^2) were seeded in a total volume of 20 μL onto white 384-well microplates and incubated at 37 °C for 18 h prior to testing. cAMP modulation was determined using the DiscoverX HitHunter cAMP XS+ assay. Since the D2 receptor couples mainly to Gi/o (inhibitory towards cAMP), the assay was run in Gi/o agonist format. In brief, the cells were incubated with the samples in the presence of 25 µM forskolin to induce a response. Medium was aspirated from cells and replaced with 10 µL HBSS/10 mM Hepes (assay buffer). Intermediate dilution of sample stocks was performed in the assay buffer to generate a concentration 4-fold higher (4×) than the final in-well concentration. A total of 5 µL of 4× sample was added to the cells, followed by 5 µL 4× EC80 forskolin in the assay buffer and incubated at 37 °C for 30 min. The final DMSO concentration (vehicle) was 1%. After appropriate compound incubation, the assay signal was generated through incubation with 5 µL of cAMP XS + Ab reagent followed by 20 μL cAMP XS + ED/CL lysis cocktail for one hour followed by incubation with 20 μL cAMP XS + EA reagent for three hours at room temperature. The microplates were read following signal generation with an Envision^TM instrument (PerkinElmer, Waltham, MA, USA) for chemiluminescent signal detection.
For Gi agonist mode assays, percentage activity was calculated using the following formula: % Activity = 100% × (1 − (mean RLU of test sample − mean RLU of MAX control)/(mean RLU of vehicle control − mean RLU of MAX control)). Concentration–response curves were generated using EC50 using Graphpad Prism version 9.0 (Graphpad Software, Boston, MA, USA), and curve fitting was performed using non-linear regression analysis applying the following variable slope equation: Y = Bottom + (Top − Bottom)/(1 + 10^((LogEC50 − X) × HillSlope)).

[1] = read-out: EC50 at the D2 receptor

T1 sequence (P14416 whole entry): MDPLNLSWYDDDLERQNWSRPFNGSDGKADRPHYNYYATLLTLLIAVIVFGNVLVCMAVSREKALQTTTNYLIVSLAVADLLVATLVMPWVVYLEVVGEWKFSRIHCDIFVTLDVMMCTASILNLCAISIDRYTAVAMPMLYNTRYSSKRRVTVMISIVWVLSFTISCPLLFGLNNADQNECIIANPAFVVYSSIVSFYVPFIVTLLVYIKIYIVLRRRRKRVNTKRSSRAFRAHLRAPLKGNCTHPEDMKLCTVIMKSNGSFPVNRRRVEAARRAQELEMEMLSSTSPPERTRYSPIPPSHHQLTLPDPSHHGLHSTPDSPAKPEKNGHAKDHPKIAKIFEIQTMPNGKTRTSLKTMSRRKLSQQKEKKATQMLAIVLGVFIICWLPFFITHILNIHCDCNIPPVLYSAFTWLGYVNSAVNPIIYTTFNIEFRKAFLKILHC

| SMILES | EC50 [1] | EC50 (EC50 at the D2 receptor) | dopaminergic activity (in words) | other results |
| --- | --- | --- | --- | --- |
| CC1(C)CC[C@]2(C(=O)O)CC[C@]3(C)C(=CC[C@@H]4[C@@]5(C)C[C@@H](O)[C@H](O)[C@@](C)(CO)[C@@H]5CC[C@]43C)[C@@H]2C1 [arjunolic acid, reference compound] | ≥ 50 µM | – | – | – |
| CC(=O)O[C@@H]1C[C@@H](C)[C@](O)(CCc2ccoc2)[C@@]2(C)CCCC(C)(C)[C@H]12 [compound 2, Rotundifuran] | 12.8 µM | – | – | – |
| CC(=O)O[C@@H]1C[C@@H](C)[C@](O)(CCC2=CC(=O)OC2)[C@@]2(C)CCCC(C)(C)[C@H]12 [compound 3, Vitexilactone] | > 50 µM | – | – | – |
| CC1(C)CC[C@]2(C(=O)O)CC[C@]3(C)C(=CC[C@@H]4[C@@]5(C)CC[C@H](O)C(C)(C)[C@@H]5CC[C@]43C)[C@@H]2C1 [oleanolic acid, reference compound] | – | ≥ 50 µM | – | – |
| C[C@H]1[C@H](C)CC[C@]2(C(=O)O)CC[C@]3(C)C(=CC[C@@H]4[C@@]5(C)CC[C@H](O)C(C)(C)[C@@H]5CC[C@]43C)[C@H]12 [ursolic acid, reference compound] | ≥ 50 µM | – | – | – |
| CC1(C)CC[C@]2(C(=O)O)CC[C@]3(C)C(=CC[C@@H]4[C@@]5(C)C[C@@H](O)[C@@H](O)C(C)(C)[C@@H]5CC[C@]43C)[C@@H]2C1 [compound 7, 3-epi-Maslinic acid] | – | 5.1 µM | active | – |
| C[C@H]1[C@H](C)CC[C@]2(C(=O)O)CC[C@]3(C)C(=CC[C@@H]4[C@@]5(C)C[C@@H](O)[C@@H](O)C(C)(C)[C@@H]5CC[C@]43C)[C@H]12 [compound 9, 3-epi-Corosolic acid] | – | 10.7 µM | active | change in activity on the D2 receptor relative to 7: 2 fold |
| C[C@@H]1CC[C@]2(C(=O)O)CC[C@]3(C)C(=CC[C@@H]4[C@@]5(C)C[C@@H](O)[C@H](O)C(C)(C)[C@@H]5CC[C@]43C)[C@@H]2[C@]1(C)O [compound 12, Tormentic acid] | > 50 µM | – | – | – |
| C=CC(C)(O)CC[C@@H]1[C@@]2(C)CCCC(C)(C)[C@@H]2CC[C@]1(C)O (stereo partly drawn) [compound 4, 8-epi-Sclareol] | 24.3 µM | – | either negligible or no dopaminergic activity; also recorded: either weak or no dopaminergic activity | – |
| C[C@H]1[C@H](C)CC[C@]2(C(=O)O)CC[C@]3(C)C(=CC[C@@H]4[C@@]5(C)C[C@@H](O)[C@H](O)C(C)(C)[C@@H]5CC[C@]43C)[C@H]12 [compound 10, Corosolic acid] | – | > 50 µM | – | change in activity on the D2 receptor relative to 9 (epimers 9 and 10, differing at C3): > 5 fold |
| CC1(C)CC[C@]2(C(=O)O)CC[C@]3(C)C(=CC[C@@H]4[C@@]5(C)C[C@@H](O)[C@H](O)C(C)(C)[C@@H]5CC[C@]43C)[C@@H]2C1 [compound 8, Maslinic acid] | – | 21.3 µM | active | change in activity on the D2 receptor relative to 7: 4 fold |
| C=CC(C)(O)CC[C@H]1[C@@]2(C)CCCC(C)(C)[C@@H]2CC[C@@]1(C)O (stereo partly shown) [compound 5, Viteagnusin C] | > 50 µM | – | either negligible or no dopaminergic activity; also recorded: either weak or no dopaminergic activity | – |
| C[C@@H]1CC[C@]2(C(=O)O)CC[C@]3(C)C(=CC[C@@H]4[C@@]5(C)C[C@@H](O)[C@@H](O)C(C)(C)[C@@H]5CC[C@]43C)[C@@H]2[C@]1(C)O [compound 11, Euscaphic acid] | > 50 µM | – | – | – |
| C=CC(C)(O)CC[C@@]1(C)C2=C([C@H](OC(C)=O)[C@H](OC(C)=O)[C@H]1C)C(C)(C)CCC2 (stereo partly shown) [compound 6, Vitetrifolin D] | – | > 50 µM | either negligible or no dopaminergic activity; also recorded: either weak or no dopaminergic activity | – |
| CC(=O)O[C@@H]1C[C@@H](C)[C@](O)(CCC2=CC(=O)OC2O)[C@@]2(C)CCCC(C)(C)[C@H]12 (stereo partly shown) [compound 1, Viteagnusin I] | – | 6.61 µM and 6.6 µM | – | IC50: 6.6 µM |
